Measured values published in patent US20140162955A1, “Antagonizing Heparin With Salicylamide Compounds And Histamine Blocking Agents” (CELLCEUTIX CORPORATION, priority 2012, published 2014).

System: anesthetized rats
Assay: Cardiovascular effects (blood pressure, heart rate) in anesthetized rats pretreated with heparin and histamine antagonists or NO synthase inhibitor
Type: in vivo, rat
Conditions: for blocking of blood pressure reductions caused by IV infusion of Compound 100: pretreatment at T = -15 minutes, Compound 100 at 8 and 16 mg/kg, anesthetized rat
Protocol: A purpose of this study was to evaluate the role of histamine or nitric oxide (NO) on the hemodynamic effects of Compound 100 administered by a 10 minute IV infusion in rats by pretreatment with an H1 receptor blocker (diphenhydramine; DPH), an H2 receptor blocker (cimetidine; CIM), or an NO synthase inhibitor (L-NAME). Surgically prepared animals (jugular vein catheter for test article administration and carotid artery catheter for blood pressure/heart rate measurement) were purchased from Charles River Laboratories, Raleigh, N.C. Animals were anesthetized on the day of experimentation with isoflurane (1.8-4%). Blood pressure and heart rate data were collected on a Grass Polygraph recorder. Groups of three or four animals were administered two pretreatments followed by the administration of the vehicle or Compound 100. Dose groups are described in Table 1. Treatment 1 was administered at T=−15 minutes as an intravenous administration of saline, cimetidine or L-Name, a subcutaneous dose of diphenhydramine or a combination of diphenhydramine (s.c.) and cimetidine (i.v.). Saline or heparin were administered at T=−3 minutes by intravenous administration (Treatment 2). Treatment 3 was Compound 100 or sterile water (vehicle) which was administered by a 10 minute intravenous infusion. Blood pressure and heart rate were recorded prior to Treatment 1, 5 and 10 minutes after Treatment 1, 2 minutes following Treatment 2, and at 1, 15, 25, 40, and 70 minutes following Treatment 3. Each recording interval was approximately 1 minute long. [table]

SMILES	blocking of blood pressure reductions caused by IV infusion of Compound 100	blood pressure following administration of L-NAME, prior to dosing of test agent (L-NAME 100 mg/kg i.v., before Compound 100)
CN/C(=N/CCSCc1nc[nH]c1C)NC#N [Cimetidine, cimetidine]	only prevented blood pressure reductions at the 8 mg/kg dose	–
COC(=O)[C@@H](N)CCCNC(=N)N[N+](=O)[O-] [L-NAME]	ineffective at both Compound 100 dosages	increases in blood pressure were evident
CN(C)CCOC(c1ccccc1)c1ccccc1 [diphenhydramine]	effectively blocks blood pressure reductions	–
